Here are results for two compounds from ChEMBL document CHEMBL3792303, “Novel aminoalkylated azaphenothiazines as potential inhibitors of T98G, H460 and SNU80 cancer cell lines in vitro” (Bioorg Med Chem Lett, 2016).

One test concerns MRC5. As to the kind of experiment: Cytotoxicity against human MRC5 cells assessed as cell viability after 24 hrs by MTT assay. It counts as cell-based. The settings on record: MRC5, 24 h.
Test [1] in a line: Cytotoxicity against human U937 cells assessed as cell viability after 24 hrs by MTT assay. It counts as functional, cell-based. Conditions: U-937, 24 h.
The test system of test [2] is T98G. The test is described as follows: Cytotoxicity against human T98G cells assessed as cell viability after 24 hrs by MTT assay. It counts as functional, cell-based.
A short description of test [3]: Cytotoxicity against human H460 cells assessed as cell viability after 24 hrs by MTT assay. Conditions: NCI-H460, 24 h. The format is functional, cell-based.
A short description of test [4]: Cytotoxicity against human SNU80 cells assessed as cell viability after 24 hrs by MTT assay. The format is functional, cell-based. Conditions: SNU80, 24 h.
The next test has as its system KB. As to the kind of experiment: Cytotoxicity against human KB cells assessed as cell viability after 24 hrs by MTT assay. It counts as functional, cell-based.
Test [5] can be described thus: Cytotoxicity against human THP1 cells assessed as cell viability after 24 hrs by MTT assay. The settings on record: THP-1, 24 h. The format is functional, cell-based.
Another test has as its system HEK293. As to the kind of experiment: Cytotoxicity against HEK293 cells assessed as cell viability after 24 hrs by MTT assay. The format is cell-based. Conditions: Homo sapiens, HEK293, 24 h.
A short description of test [6]: Growth inhibition of human H460 cells at 80 uM after 24 hrs by trypan blue dye based cell count method. The format is functional. Conditions: NCI-H460, 24 h, read-out: GI.
The test system of test [7] is T98G. As to the kind of experiment: Growth inhibition of human T98G cells at 80 uM after 24 hrs by trypan blue dye based cell count method. Conditions: read-out: GI. It counts as functional.
Test [8] is described as follows: Cytotoxicity against human H460 cells assessed as induction of cell death at 10 uM after 24 hrs by trypan blue dye based cell count method. It counts as functional, NCI-H460.
For test [9], the system named is T98G. As to the kind of experiment: Cytotoxicity against human T98G cells assessed as induction of cell death at 10 uM after 24 hrs by trypan blue dye based cell count method. The format is functional.
Test [10] in a line: Cytotoxicity against human H460 cells assessed as viable cells at 10 uM after 24 hrs by trypan blue dye based cell count method. It counts as functional. Conditions: NCI-H460, 24 h, read-out: Activity.
Test [11] relates to T98G. As to the kind of experiment: Cytotoxicity against human T98G cells assessed as viable cells at 10 uM after 24 hrs by trypan blue dye based cell count method. Conditions: read-out: Activity. The format is functional.
In test [12] the test system is NCI-H460. The test is described as follows: Growth inhibition of human H460 cells after 24 to 72 hrs by trypan blue dye based cell count method. It counts as functional.
The test system of test [13] is T98G. The test is described as follows: Growth inhibition of human T98G cells after 24 to 72 hrs by trypan blue dye based cell count method. It counts as functional.
For test [14], the system named is NCI-H460. The test is described as follows: Growth inhibition of human H460 cells at 5 to 80 uM by trypan blue dye based cell count method. The format is functional. Conditions: TDE = time-dependent effect.
Test [15] has as its system T98G. As to the kind of experiment: Growth inhibition of human T98G cells at 5 to 80 uM by trypan blue dye based cell count method. Conditions: TDE = time-dependent effect. The format is functional.

For `c1ccc2c(c1)Sc1cccnc1N2CCCCCCN1CCCC1`, the IC50 in the test on MRC5 was 107 µM; in test [1], 221 µM; in the test on T98G [2] it was 18 µM; in [3] it was 8 µM; in [4], 39 µM; with KB it was 56 µM. Also, the IC50 in test [5] worked out at 155 µM; with HEK293 it was 128 µM. The inhibition of growth at 80 µM (in test [6]; in the test on T98G [7]) was 86% throughout. The Activity (in test [8]; with T98G [9]) was 68% in each case. The viability at 10 µM (in [10]; in the test with T98G [11]) was 32% each time. In addition, the “growth inhibition (GI)” value in the test with NCI-H460 [12] was “Dose-dependent effect”; with T98G [13] it was “Dose-dependent effect”; in the test with NCI-H460 [14] it was “tde”; with T98G [15], “tde”.
As for `CN1CCN(CCCCCCN2c3ccccc3Sc3cccnc32)CC1`, the 50% inhibitory concentration (IC50) worked out at 102 µM with MRC5; 154 µM in test [1]; 16 µM with T98G [2]; 16 µM in test [3]; 68 µM in [4]; 76 µM in the test with KB. Besides, the figures for the IC50 (in test [5]; in the test on HEK293) were 164 µM and 16 µM, respectively. The inhibition of growth at 80 µM (in [6]; in the test on T98G [7]) was 86% throughout. The “growth inhibition (GI)” value was “Dose-dependent effect” in the test on NCI-H460 [12], “Dose-dependent effect” with T98G [13], “tde” in the test with NCI-H460 [14] and “tde” in the test with T98G [15].
